Results: patent US20130281397A1, “TREATMENT OF DISEASES BY EPIGENETIC REGULATION” (RVX Therapeutics Inc., priority 2012, published 2013)
Where a name gives a salt, the structure may show the parent alone.

system: not given; experiment: not given; details: not given

SMILES	melting point
Cc1cc(-c2nc3ccc(CN4CCOCC4)cc3c(=O)[nH]2)cc(C)c1O (as salt: hydrochloride) [Example 57, 2-(4-hydroxy-3,5-dimethylphenyl)-6-(morpholinomethyl)quinazolin-4(3H)-one]	284 to 286 °C
COc1cc(OC)c2c(=O)[nH]c(-c3ccccn3)nc2c1 (as salt: hydrochloride) [Example 21, 5,7-dimethoxy-2-(pyridin-2-yl)quinazolin-4(3H)-one]	215 to 217 °C
COc1cc2nc(-c3ccc(N(CCO)CCO)cc3)[nH]c(=O)c2cc1OC [Example 42, 2-(4-(bis(2-hydroxyethyl)amino)phenyl)-6,7-dimethoxyquinazolin-4(3H)-one]	268 to 270 °C
CCN1CCN(Cc2ccc(-c3nc4cc(OC)cc(OC)c4c(=O)[nH]3)cc2)CC1 (as salt: hydrochloride) [Example 62, 2-(4-((4-ethylpiperazin-1-yl)methyl)phenyl)-5,7-dimethoxyquinazolin-4(3H)-one]	278 to 280 °C (dec.)
COc1cc(OC)c2c(=O)[nH]c(-c3ccc(CN4CCOCC4)cc3)nc2c1 (as salt: hydrochloride) [Example 61, 5,7-dimethoxy-2-(4-(morpholinomethyl)phenyl)quinazolin-4(3H)-one]	206 to 208 °C (dec.)
COc1cc(OC)c2c(=O)[nH]c(-c3ccc(CN4CCN(C)CC4)cc3)nc2c1 (as salt: hydrochloride) [Example 54, 5,7-dimethoxy-2-(4-((4-methylpiperazin-1-yl)methyl)phenyl)quinazolin-4(3H)-one]	275 to 277 °C
COc1cc(OC)c2c(=O)[nH]c(-c3cc(C)c(OCCN4CCN(C)CC4)c(C)c3)cc2c1 (as salt: hydrochloride) [Example 18, 3-(3,5-dimethyl-4-(2-(4-methylpiperazin-1-yl)ethoxy)phenyl)-6,8-dimethoxyisoquinolin-1(2H)-one]	195 to 198 °C
Cc1cc(-c2nc3ccccc3c(=O)[nH]2)cc(C)c1OCCN1CCOCC1 (as salt: hydrochloride) [Example 29, 2-(3,5-dimethyl-4-(2-morpholinoethoxy)phenyl)quinazolin-4(3H)-one]	300 to 302 °C
COc1cc2nc(-c3ccc(N(C)C)c4ccccc34)[nH]c(=O)c2cc1OC [Example 39]	235.5 to 236.5 °C
COc1cc(OC)c2c(=O)[nH]c(-c3cc(C)c(OCCN(C)C)c(C)c3)cc2c1 (as salt: hydrochloride) [Example 7, 3-(4-(2-(dimethylamino)ethoxy)-3,5-dimethylphenyl)-6,8-dimethoxyisoquinolin-1(2H)-one]	261 to 263 °C
COc1cc(OC)c2c(=O)[nH]c(-c3cccnc3)nc2c1 (as salt: hydrochloride) [Example 22, 5,7-dimethoxy-2-(pyridin-3-yl)quinazolin-4(3H)-one]	257 to 259 °C
Cc1cc(-c2cc3ccc(CN4CCOCC4)cc3c(=O)[nH]2)cc(C)c1O (as salt: hydrochloride) [Example 8, 3-(4-hydroxy-3,5-dimethylphenyl)-7-(morpholinomethyl)isoquinolin-1(2H)-one]	281 to 283 °C

target: T1, Brd4 bromodomain 1 (Homo sapiens, UniProt O60885); experiment: Inhibition of binding of tetra-acetylated histone H4 and Brd4 bromodomain 1 by TR-FRET; details: His-tagged bromodomain 200 nM, biotinylated tetra-acetylated histone H4 peptide 25-50 nM, 2 hours at room temperature
T1 construct: made in house; host or cells: E. coli BL21(DE3)
Procedure: Proteins were cloned and overexpressed with a N-terminal 6×His tag, then purified by nickel affinity followed by size exclusion chromatography. Briefly, E. coli BL21(DE3) cells were transformed with a recombinant expression vector encoding N-terminally […] tagged bromodomains from Brd2, Brd3, or Brd4. Cell cultures were incubated at 37° C. with shaking to the appropriate density and induced overnight with IPTG. The supernatant of lysed cells was loaded onto Ni-IDA column for purification. Eluted protein was pooled, concentrated and further purified by size exclusion chromatography. Fractions representing monomeric protein were pooled, concentrated, aliquoted, and frozen at −80° C. for use in subsequent experiments.
For inhibition assays, serially diluted test compound was added to these reactions in a 0.2% final concentration of DMSO. Final buffer concentrations were 30 mM HEPES pH 7.4, 30 mM NaCl, 0.3 mM CHAPS, 20 mM phosphate pH 7.0, 320 mM KF, 0.08% BSA). […] The binding inhibitory activity was shown by a decrease in 665 nm fluorescence relative to 620 nm. IC50 values were determined from a dose response curve.

SMILES	FRET activity (<50 uM)
COc1cc(OC)c2c(=O)[nH]c(-c3cccc(-c4ccc(SC)cc4)n3)nc2c1 [Example 82, 5,7-dimethoxy-2-(6-(4-(methylthio)phenyl)pyridin-2-yl)quinazolin-4(3H)-one]	Inactive
COc1cc(OC)c2c(=O)[nH]c(-c3cccnc3)nc2c1 [Example 22, 5,7-dimethoxy-2-(pyridin-3-yl)quinazolin-4(3H)-one]	Active
COc1cc(OC)c2c(=O)[nH]c(-c3ccc(CN4CCN(C)CC4)cc3)nc2c1 [Example 54, 5,7-dimethoxy-2-(4-((4-methylpiperazin-1-yl)methyl)phenyl)quinazolin-4(3H)-one]	Active
COc1ccc(C(=O)NCCOc2c(C)cc(-c3nc4cc(OC)cc(OC)c4c(=O)[nH]3)cc2C)cc1 [Example 105, N-(2-(4-(5,7-dimethoxy-4-oxo-3,4-dihydroquinazolin-2-yl)-2,6-dimethylphenoxy)ethyl)-4-methoxybenzamide]	Inactive
COc1cc(OC)c2c(=O)[nH]c(-c3cc(C)c(OCCNC(C)=O)c(C)c3)nc2c1 [Example 106, N-(2-(4-(5,7-dimethoxy-4-oxo-3,4-dihydroquinazolin-2-yl)-2,6-dimethylphenoxy)ethyl)acetamide]	Active
COc1ccc(S(=O)(=O)NCCOc2c(C)cc(-c3nc4cc(OC)cc(OC)c4c(=O)[nH]3)cc2C)cc1 [Example 94, N-(2-(4-(5,7-dimethoxy-4-oxo-3,4-dihydroquinazolin-2-yl)-2,6-dimethylphenoxy)ethyl)-4-methoxybenzenesulfonamide]	Inactive
COc1cc(OC)c2c(=O)[nH]c(-c3cc(C)c(OCCN(C)C)c(C)c3)cc2c1 [Example 7, 3-(4-(2-(dimethylamino)ethoxy)-3,5-dimethylphenyl)-6,8-dimethoxyisoquinolin-1(2H)-one]	Active
CNC(=O)OCCOc1c(C)cc(-c2nc3cc(OC)cc(OC)c3c(=O)[nH]2)cc1C [Example 100, 2-(4-(5,7-Dimethoxy-4-oxo-3,4-dihydroquinazolin-2-yl)-2,6-dimethyl-phenoxy)ethyl methylcarbamate]	Active
COc1cc(OC)c2c(=O)[nH]c(-c3cc(C)c(OCCNC(=O)N(C)C)c(C)c3)nc2c1 [Example 112, 3-(2-(4-(5,7-dimethoxy-4-oxo-3,4-dihydroquinazolin-2-yl)-2,6-dimethylphenoxy)ethyl)-1,1-dimethylurea]	Active
COc1cc(OC)c2c(=O)[nH]c(-c3cc(C)c(OCc4ccccc4)c(C)c3)nc2c1 [Example 90, 2-(4-(benzyloxy)-3,5-dimethylphenyl)-5,7-dimethoxyquinazolin-4(3H)-one]	Inactive
COc1cc(OC)c2c(=O)[nH]c(-c3cc(C)c(OCCNS(=O)(=O)c4ccc(Cl)cc4)c(C)c3)nc2c1 [Example 95, 4-chloro-N-(2-(4-(5,7-dimethoxy-4-oxo-3,4-dihydroquinazolin-2-yl)-2,6-dimethylphenoxy)ethyl)benzenesulfonamide]	Inactive
COc1cc(OC)c2c(=O)[nH]c(-c3cc(C)nc(Cl)c3)nc2c1 [Example 83, 2-(2-chloro-6-methylpyridin-4-yl)-5,7-dimethoxyquinazolin-4(3H)-one]	Inactive
CCN1CCN(Cc2ccc(-c3nc4cc(OC)cc(OC)c4c(=O)[nH]3)cc2)CC1 [Example 62, 2-(4-((4-ethylpiperazin-1-yl)methyl)phenyl)-5,7-dimethoxyquinazolin-4(3H)-one]	Active
COc1cc(OC)c2c(=O)[nH]c(-c3cccc(C)n3)nc2c1 [Example 81, 5,7-dimethoxy-2-(6-methylpyridin-2-yl)quinazolin-4(3H)-one]	Active
Cc1cc(-c2cc3ncccc3c(=O)[nH]2)cc(C)c1O [Example 5, 7-(4-hydroxy-3,5-dimethylphenyl)-1,6-naphthyridin-5(6H)-one]	Inactive
COc1ccc2nc(-c3cc(C)c(OCCO)c(C)c3)[nH]c(=O)c2c1 [Example 76, 2-(4-(2-hydroxyethoxy)-3,5-dimethylphenyl)-6-methoxyquinazolin-4(3H)-one]	Inactive
